Data from US8314108B2, “5-(5-(2-(3-aminopropoxy)-6-methoxyphenyl)-1H-pyrazol-3-ylamino)pyrazine-2-carbonitrile, pharmaceutically acceptable salts thereof, or solvate of salts” (Eli Lilly and Company, priority 2008, dated 2012).
Structures can show the parent of a compound that is named as a salt.

What was measured:
[1] = tested on: HT-29 cells; assay: ECtfs (Two-Fold Sensitization) Assay, 3H-thymidine incorporation; assay type: cell-based
Procedure: The capacity for continued tumor cell proliferation after DNA damage can be analyzed by determining the ability of cells to replicate their DNA. […] Following a recovery period, cells are assayed for the ability to incorporate radioactive thymidine into DNA during S phase. The ECtfs parameter is a measure of the concentration of a Chk1 inhibitor necessary to reduce by half the GI90 concentration of gemcitabine, measured in this assay in the absence of Chk1 inhibition. […] These cells are plated at 1.3×10^3 per well on Corning Costar 96-well tissue culture plates. After plating the cells, the tissue culture plates are held at room temperature for 45 minutes, before returning to 37° C. Plates are incubated for 24 hours prior to gemcitabine addition. Before gemcitabine addition, medium is removed from all wells and replaced with 150 μL per well of fresh RPMI medium. Gemcitabine stocks at 10 mM are prepared in phosphate-buffered saline. Gemcitabine dilutions were prepared at 4× concentrations in RPMI medium and added to wells at 50 μL per well. The highest final concentration of gemcitabine used is 80 μM and dilutions proceed by four-fold steps. Two hours later, gemcitabine-containing medium is removed from the wells and replaced with 150 μL per well of fresh RPMI medium. […] The volume of addition is 50 μL. Compound dilutions proceed by two-fold steps, starting at 5000 nM. […] 20 μL of this solution is added to each well, yielding 1 μCi/well of ^3H-thymidine. Cells are labeled for twenty-two hours. The medium containing ^3H-thymidine is thoroughly removed from the wells. The plates are then frozen at −20° C., for several hours. To harvest the DNA containing incorporated ^3H-thymidine, plates are thawed for several minutes, and then 120 μL per well of 0.1 N NaOH is added to each well. Each plate is then incubated at 37° C., with slow mixing on a rotator, for 10 minutes. […] The wells of the tissue culture plate on which cells had been labeled are washed with water 5×. The Unifilter plate membranes are washed with an additional 4.5 mL per well (3×1.0 mL and finally a 1.5 mL wash). The Unifilter plates are then dried at 37° C. for at least 6 hours. The bottom of each filter plate was sealed with a Backseal adhesive sheet (PerkinElmer), and the 50 μL/well of MicroScint-20 (Perkin Elmer) is added. Each plate is then sealed with a Topseal clear adhesive sheet (PerkinElmer). Plates are counted on a Topcount scintillation counter (PerkinElmer), at 1 minute per well. ^3H-thymidine counts per minute (cpm) are exported into Prism (GraphPad) for analysis and plotting. […] For plotting the data in Prism, the gemcitabine concentrations are transformed to log values, and dose-response curves are fit by non-linear regression. Neither top nor bottom fits are constrained.

[2] = tested on: Calu-6 lung tumor xenograft; assay: Human Tumor Xenograft Model, Calu-6 lung; assay type: in vivo, nude mice; details: Calu-6 xenograft
Procedure: (§1) The ability of Chk1 inhibitors to effect tumor killing can be determined in vivo using the Calu-6 lung and HT-29 colon tumor xenograft efficacy models. Calu-6 lung cancer cells (ATCC) are cultured in growth media (MEM w/Earle's salts (Invitrogen) with L-glutamine (Gibco™) supplemented with 10% (v/v) heat inactivated FBS (Gibco™), 1×MEM non-essential amino acids (Gibco™), 1× sodium pyruvate (Gibco™)) and HT-29 colon cancer cells (ATCC) are cultured in growth media, (McCoy's 5A medium (Gibco™) supplemented with 10% FBS (Gibco™)) and expanded. Cells are harvested and washed twice with phosphate buffered saline and 5×10^6 cells (HT-29) or 1×10^6 cells (Calu-6) in growth media (without serum) are mixed with equal volume of BD Matrigel™ matrix (BD Bioscience, Franklin, N.J.), then injected subcutaneously into the flank of nude mice (CD-1 nu/nu, from Charles River Labs, Wilmington, Mass.). At about day 16 after implant (150-200 mm^3), gemcitabine is formulated fresh in saline daily and administered to animals by intraperitoneal route at 60 mg/kg dose. […] Tumor response is determined by tumor volume measurement performed twice a week during the course of treatment. Tumor growth inhibition (TGI) is calculated as the percent reduction in mean tumor size of a compound treated group from the mean tumor size of the vehicle-treated control group.

[3] = tested on: HT-29 colon tumor xenograft; assay: Human Tumor Xenograft Model, HT-29 colon; assay type: in vivo, nude mice; details: HT-29 xenograft
Procedure: as §1

[4] = tested on: Calu-6 lung xenograft; assay: Single Agent Efficacy Dosing, Calu-6 lung xenograft; assay type: in vivo, nude mice; details: 15 mg/kg subcutaneously, BID×5 rest 2 days, ×3 cycles
Procedure: The ability of Chk1 inhibitors to effect tumor killing can be determined in vivo using the Calu-6 lung xenograft efficacy model. Calu-6 lung cancer cells (ATCC) are cultured as described above. Cells are harvested and washed twice with phosphate buffered saline and 1×10^6 cells (Calu-6) in growth media (without serum) are mixed with equal volume of BD Matrigel™ matrix (BD Bioscience, Franklin, N.J.), then injected subcutaneously into the flank of nude mice (CD-1 nu/nu, from Charles River Labs, Wilmington, Mass.).

[5] = tested on: Thirty solid tumor cell lines; assay: Monolayer Proliferation and Cytotoxicity Assay (modified propidium iodide assay, Oncotest); assay type: cell-based; details: 96 h; majority of thirty solid tumor cell lines, 4 days of treatment; read-out: EC50 (growth inhibition of tumor cell lines)
Description: One measure of potency of a Chk1 inhibitor is its ability to inhibit the proliferation of cancer cells in culture due to uncontrolled replication origin activation. (Conti et al. Cell Cycle 6: 2760-2767, 2007) Determination of Chk1 inhibitor antiproliferative activity in cell lines derived from a broad range of tumor types is indicative of which tumor types may be clinically responsive to chemotherapy with Chk1 inhibitors. The following described cellular proliferation assay is run at Oncotest, GmbH in Germany. Thirty solid tumor cell lines are derived from 13 different tumor histotypes, each represented by 1 to 6 different cell lines (Oncotest, GmbH). […] Briefly, adherent cells are harvested from exponential phase cultures by trypsinization, counted and plated in 96 well flat-bottomed microtiter plates at a cell density depending on the cell line (4.000-20.000 cells/well). […] Finally, PI fluorescence is measured using the Cytofluor 4000 microplate reader (excitation λ=530 nm, emission λ=620 nm) to determine the total viable cell number. Growth inhibition is expressed as Test/Control×100 (% T/C) values. Based on the T/C values, relative IC50 values are determined using non-linear regression (log [conc. of inhibitor] versus response (% T/C)).

[6] = stated jointly for both HT-29 and Calu-6 models

SMILES: COc1cccc(OCCCN)c1-c1cc(Nc2cnc(C#N)cn2)n[nH]1 [Example 2, 5-(5-(2-(3-Aminopropoxy)-6-methoxyphenyl)-1H-pyrazol-3-ylamino)pyrazine-2-carbonitrile dihydrogen chloride salt]
- decrease of the EC50 of gemcitabine ([1]; 3 nM of the compound of Example 2, HT29 colon carcinoma cells): 7 fold
- ECtfs value ([1]; concentration of Chk1 inhibitor necessary to reduce by half the GI90 concentration of gemcitabine, HT-29 cells): 0.3 nM
- anti-tumor activity ([2]; dosed alone and in combination with gemcitabine 60 mg/kg, intravenous, Q3Dx4): excellent dose dependent anti-tumor activity
- increase in tumor growth inhibition over gemcitabine alone [2, 6]: six-fold
- anti-tumor activity ([3]; dosed alone and in combination with gemcitabine 60 mg/kg, intraperitoneal, Q3Dx4): excellent dose dependent anti-tumor activity
- increase in tumor growth inhibition over gemcitabine alone [3, 6]: six-fold
- growth inhibition compared with the gemcitabine plus compound combination schedule [4]: superior growth inhibition
- tumor regression [4]: Complete tumor regression is rapid and durable
- EC50 [5]: < 0.02 µM

SMILES: Nc1ccn([C@@H]2O[C@H](CO)[C@@H](O)C2(F)F)c(=O)n1 [gemcitabine, reference compound]
- EC50 ([1]; Homo sapiens, HT-29, gemcitabine alone, HT29 colon carcinoma cells): 0.037 µM
- percentage of proliferation inhibition ([1]; gemcitabine alone, HT29 cells): 52%
